Results reported in PubChem BioAssay (NCI).
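Cultured in 96-well plates, cells were exposed to test compound for 48 hours across five concentrations. GI50 is the concentration that inhibits growth by half. The concentration for full growth arrest is given as TGI.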

Key:
Test in all cases: DTP human tumour cell line panel, 48 h
ACHN renal = test system: ACHN renal
EKVX NSCLC = test system: EKVX NSCLC
HCC-2998 colon = test system: HCC-2998 colon
HOP-62 NSCLC = test system: HOP-62 NSCLC
HT29 colon = test system: HT29 colon
MOLT-4 leukemia = test system: MOLT-4 leukemia
NCI-H460 lung = test system: NCI-H460 lung
NCI-H522 lung = test system: NCI-H522 lung
OVCAR-3 ovarian = test system: OVCAR-3 ovarian
MDA-MB-435 = test system: MDA-MB-435

Compound | TGI (ACHN renal) [µM] | TGI (EKVX NSCLC) [µM] | TGI (HCC-2998 colon) [µM] | TGI (HOP-62 NSCLC) [µM] | TGI (HT29 colon) [µM] | TGI (MOLT-4 leukemia) [µM] | TGI (NCI-H460 lung) [µM] | TGI (NCI-H522 lung) [µM] | TGI (OVCAR-3 ovarian) [µM] | TGI (MDA-MB-435) [µM] | GI50 (ACHN renal) [µM] | GI50 (EKVX NSCLC) [µM] | GI50 (HCC-2998 colon) [µM] | GI50 (HOP-62 NSCLC) [µM] | GI50 (HT29 colon) [µM] | GI50 (MDA-MB-435) [µM] | GI50 (MOLT-4 leukemia) [µM] | GI50 (NCI-H460 lung) [µM] | GI50 (OVCAR-3 ovarian) [µM] | GI50 (NCI-H522 lung) [µM]
COC(=O)C12C3C4C1C1C2C3C41C(=O)N(C(C)C)C(C)C (centres undefined) | > 100 | > 100 | > 100 | > 100 | > 100 | > 100 | > 100 | > 100 | > 100 |  |  |  |  |  |  |  |  |  |  | 
C=Cc1cnc([N+](=O)[O-])n1C | > 100 | > 100 | > 100 | > 100 | > 100 | > 100 | > 100 |  | > 100 | > 100 |  |  |  |  |  |  |  |  |  | 
O=C(c1ccccc1)c1ccccc1C(=O)c1ccccc1 | > 100 | > 100 | 85.3 | > 100 | > 100 | > 100 | > 100 |  | > 100 | > 100 | 45.7 | 28.6 | 32.3 | > 100 | 45.3 | 28.7 | 32.7 | 35.9 | 41 | 
CCC1(CC)C(=O)[N-]C(=O)[N-]C1=O.[Au+].[Au+].c1ccc([PH+](c2ccccc2)c2ccccc2)cc1.c1ccc([PH+](c2ccccc2)c2ccccc2)cc1 | 3.07 |  | 3.41 |  |  |  | 4.69 | 0.244 | 2.59 |  | 1.7 |  | 1.98 |  |  |  |  | 1.99 | 1.31 | 0.119
COc1cc(CNC(=O)CCSc2nc3ccccc3c(=O)n2Cc2cc(OC)c(OC)c(OC)c2)cc(OC)c1OC | > 100 |  | 94.6 | 28.7 |  | > 100 | 27.5 | 27.5 | 18.2 |  | 8.09 |  | 13 | 4.36 |  |  | 7.38 | 4.19 | 4.23 | 6.55
O=C1C2=C(c3ccccc31)C(c1ccc(F)cc1)N1C(=O)CCSC1=N2 (centres undefined) | > 100 | > 100 | > 100 | > 100 | > 100 | > 100 | > 100 | > 100 | > 100 |  |  |  |  |  |  |  |  |  |  | 
CN/N=C(\C(=O)Nc1ccc([N+](=O)[O-])cc1[N+](=O)[O-])C1NC(=O)NC1=O (centres undefined) | > 100 | > 100 | > 100 | > 100 | > 100 | > 100 | > 100 |  | > 100 |  |  |  |  |  |  |  |  |  |  | 
Cc1[nH]n(-c2ccccc2)c(=O)c1C(=O)c1ccccc1 | > 25 |  | > 25 | > 25 | > 25 | > 25 | > 25 | > 25 | > 25 | > 25 | > 25 |  | > 25 | > 25 | > 25 | > 25 | > 25 | > 19.5 | > 25 | > 25
Cc1cc(Cl)ccc1NC(=O)CCCC(=O)C(C(=O)c1ccccc1)c1ccccc1 (centres undefined) | > 100 |  | > 100 | > 100 | > 100 | > 100 | > 100 | > 100 | > 100 |  |  |  |  |  |  |  |  |  |  | 
Cc1ccc(SCC(O)=C2C(=O)CCCC2=O)cc1 | > 100 | > 100 |  | > 100 | > 100 | > 100 | > 100 | > 100 | > 100 |  |  |  |  |  |  |  |  |  |  | 
N=C1C(c2nc(-c3ccc(Br)cc3)cs2)=C(O)CN1CC1CCCO1 (centres undefined) | > 100 | > 100 | > 100 | > 100 | > 100 | > 100 |  |  |  | > 100 | > 100 | > 100 | > 100 | > 100 | > 100 | > 100 | > 100 |  |  | 
C[C@@H](c1ccccc1)N(CC#N)C1CCC[C@H]1O (some centres undefined) | > 100 | > 100 | > 100 | > 100 | > 100 | > 100 | > 100 | > 100 | > 100 |  |  |  |  |  |  |  |  |  |  | 
Cc1cc(Cl)ccc1NC(=O)NC(C)(C)COC(=O)Nc1cccc(Cl)c1 | > 100 |  | > 100 | 50.5 | 39.4 | 79 | 36.7 |  | 12.7 | 49.4 | 5.6 |  | 11.3 | 14.1 | 7.42 | 10.9 | 6.19 | 4.86 | 3.78 | 
C/C=C/C(=O)[O-].N.N.N.N.N.[Co+3].[O-][Cl+3]([O-])([O-])[O-] | > 100 | > 100 | > 100 | > 100 | > 100 | > 100 | > 100 | > 100 | > 100 |  | > 100 | > 100 | > 100 | > 100 | > 100 |  | > 100 | > 100 | > 100 | > 100
Cc1ccc(C)c2c1CCc1cc3ccccc3nc1-2 | > 100 | > 100 | > 100 | > 100 | > 100 | > 100 | > 100 | > 100 | > 100 |  |  |  |  |  |  |  |  |  |  | 
CC(C)N(Cc1ccccc1)S(=O)(=O)c1n[nH]c(C(C)(C)C)n1 | > 100 | > 100 |  | > 100 | > 100 |  | > 100 | > 100 | > 100 | > 100 |  |  |  |  |  |  |  |  |  | 
O=c1cccccc1NCCNc1cccccc1=O | > 100 | > 100 |  | > 100 | > 100 | > 100 | > 100 | > 100 | > 100 |  |  |  |  |  |  |  |  |  |  | 
NC(=S)N/N=C\c1nccc2c(C(F)(F)C(F)(F)C(F)(F)F)cccc12 | 1.31 |  | 4.48 | 1.25 | 3.62 | 8.8 | 1.21 | 0.756 | 2.22 | > 31.6 | 0.0582 |  | 0.229 | 0.0752 | 0.137 | 0.376 | 0.054 | 0.0619 | 0.0347 | 0.211
O=C1C2=C(c3ccccc31)C(c1ccc(Cl)cc1)NC(=S)N2 (centres undefined) | > 100 | > 100 |  | > 100 | 90.7 | 41.3 | > 100 | 56.2 | 39.6 |  |  |  |  |  |  |  |  |  |  | 
